Assays:
[1] = test system: NCI-H1650 xenograft tumors; test: In vivo combination study (NCI-H1650 model), Example 5; parameters: species or system female nu/nu mice; conditions: MRTX1719 and ABT-263 100 mg/kg PO QD, A-1331852 25 mg/kg PO BID, alone or combined
Description: (§1) Immunodeficient female nu/nu mice were implanted with 5×10^6 LU99 cancer cells in 50% Matrigel. Tumor volume measurements were collected using calipers and determined utilizing the formula 0.5×L×W^2 in which L refers to length and W refers to width of each tumor. When tumors reached approximately 125-150 mm^3, animals were randomized to receive A) vehicle, B) a PRMT5 inhibitor, C) navitoclax (ABT-263), D) venetoclax (ABT-199), E) A-1331852, F) the PRMT5 inhibitor and navitoclax, F) the PRMT5 inhibitor and venetoclax, or G) the PRMT5 inhibitor and A-1331852 all administered orally (PO) with the indicated dose and schedule for 20-34 days. Tumor volume was measured twice a week (n=5/treatment group). Average tumor volume and standard error of the mean was calculated and plotted at each study day using GraphPad Prism.
Example 5 was carried out using NCI-H1650 cell line derived xenografts according to the in vivo study procedure described above in Example 1.
(§2) The PRMT5 inhibitor was MRTX1719 administered at 100 mg/kg once a day (QD). MRTX1719 is (2M)-2-(4-(4-(aminomethyl)-1-oxo-1,2-dihydrophthalazin-6-yl)-1-methyl-1H-pyrazol-5-yl)-4-chloro-6-cyclopropoxy-3-fluorobenzonitrile, disclosed as Example 16-8 at p. 307 of the international patent publication No. WO 2021/050915 A1, published 18 Mar. 2021, incorporated by reference in its entirety. The BCL-2 family inhibitor, ABT-263 (navitoclax), was administered at 100 mg/kg once a day (QD) and supplied by Selleck Chemicals (Houston, TX). The BCL-2 family inhibitor A-1331852 was administered at 25 mg/kg twice a day (BID) and synthesized at Wuxi AppTec (Wuhan, China).

[2] = test system: NCI-H1437 xenograft tumors; test: In vivo combination study (NCI-H1437 model), Example 2; parameters: species or system female nu/nu mice; conditions: MRTX1719 and ABT-263 100 mg/kg PO QD, A-1331852 25 mg/kg PO QD, alone or combined
Description: as §1
Example 2 was carried out using NCI-H1437 cell line derived xenografts according to the in vivo study procedure described above in Example 1.
as §2, with “once” for “twice”, “(QD)” for “(BID)”

SW1573 xenograft tumors = test: In vivo combination study (SW1573 model), Example 3; parameters: species or system female nu/nu mice; conditions: MRTX1719 and ABT-263 100 mg/kg PO QD, A-1331852 25 mg/kg PO QD, alone or combined
Description: as §1
Example 3 was carried out in SW1573 cell line derived xenografts according to the in vivo study procedure described above in Example 1.
as §2, with “once” for “twice”, “(QD)” for “(BID)”

Mero84 = test: In vitro combination synergy, Mero84 (Cell-Titer Glo); type: cell-based; conditions: combined with exemplary PRMT5 inhibitor, 120 h, sum of Loewe, Bliss, HSA and ZIP scores
Description: (§3) A panel of MTAP-deleted cancer cell lines was assembled to determine whether combining BCL-2 family inhibitors with exemplary PRMT5 inhibitors disclosed herein results in synergistic activity.
(§4) [Assays for determining the synergy score for the pairwise combinations for each cell line were performed in triplicate. 384 or 96-well plates plus additional wells of a separate 384 or 96-well control plate for determining baseline luminescence were seeded with cells of a particular MTAP-deleted cell line in a suitable growth medium for that cell line, e.g., RPMI 1640 medium supplemented with 10% FBS and any cell line specific reagents needed for growth. The plates were incubated overnight at 37 °C in a 5% CO2 atmosphere.
(§5) To each of the designated baseline wells, Cell-Titer Glo reagent (CTG; Promega Corporation) was added to each well and the plates were incubated for 20 min shaking at room temperature. Baseline luminescence was quantitated using a BMG ClarioStar multimode plate reader according to the manufacturer's instructions.
(§6) A series of 1000× drug dilutions in 100% DMSO was prepared that includes a 9-point single agent 3-fold dilution of the exemplary PRMT5 inhibitor (of the type described in WO2021/050915) with a top dose of 3000 nM (and a 6-point single agent 5-fold dilution of the BCL-2 family inhibitor with a top dose of 3000 nM as reference standards.
(§7) A 10× intermediate dosing plate was prepared in serum free medium that contains arrayed single agent dilutions of exemplary PRMT5 inhibitor (of the type described in WO2021/050915) and or the BCL-2 family inhibitor. In addition, a matrix of 54 dilution combinations of exemplary PRMT5 inhibitor (of the type described in WO2021/050915) and the BCL-2 family inhibitor was prepared as test samples.
(§8) To each corresponding well of the 384-well plates seeded with the appropriate cell line above, 10× single agent and the 54 combinations of the dose matrix was added and the plates were incubated for 120 hours at 37 °C in 5% CO2 atmosphere. Cell-Titer Glo reagent (CTG) was added to each test well, the plates were incubated for 20 min shaking at room temperature, and luminescence was quantitated using a BMG ClarioStar multimode plate reader according to the manufacturer's instructions. To normalize test samples, the determined baseline luminescence was subtracted from each test sample prior to analysis and mean values are calculated from replicate samples.
(§9) The output of the data from each mathematical model is the assignment of a relative synergy score. The data reported in Table 6 are the aggregate sum of the Loewe additivity, Bliss independence, Highest Single Agent and ZIP synergy scores (“Composite Synergy Score”).

Miapaca2 = test: In vitro combination synergy, Miapaca2 (Cell-Titer Glo); type: cell-based; conditions: combined with exemplary PRMT5 inhibitor, 120 h, sum of Loewe, Bliss, HSA and ZIP scores
Description: as §3, §4, §5, §6, §7, §8, §9

Cn1ncc(-c2ccc3c(=O)[nH]nc(CN)c3c2)c1-c1c(F)c(Cl)cc(OC2CC2)c1C#N (atropisomer, axis not shown; (M)) [MRTX1719, (2M)-2-(4-(4-(aminomethyl)-1-oxo-1,2-dihydrophthalazin-6-yl)-1-methyl-1H-pyrazol-5-yl)-4-chloro-6-cyclopropoxy-3-fluorobenzonitrile]
Average Tumor Volume ([1]; day 0): 149 mm^3
Average Tumor Volume ([1]; day 5): 246 mm^3
Average Tumor Volume ([1]; day 8): 292 mm^3
Average Tumor Volume ([1]; day 13): 344 mm^3
Average Tumor Volume ([1]; day 15): 398 mm^3
Average Tumor Volume ([1]; day 19): 469 mm^3
Average Tumor Volume ([1]; day 22): 510 mm^3
Average Tumor Volume ([2]; day 4): 200 mm^3
Average Tumor Volume ([2]; day 7): 244 mm^3
Average Tumor Volume ([2]; day 11): 268 mm^3
Average Tumor Volume ([2]; day 14): 288 mm^3
Average Tumor Volume ([2]; day 18): 316 mm^3
Average Tumor Volume ([2]; day 21): 322 mm^3
Average Tumor Volume ([2]; day 25): 340 mm^3
Average Tumor Volume ([2]; day 28): 362 mm^3
Average Tumor Volume ([2]; day 34): 441 mm^3
Average Tumor Volume ([2]; day −1): 139 mm^3
Average Tumor Volume (SW1573 xenograft tumors; day 3): 172 mm^3
Average Tumor Volume (SW1573 xenograft tumors; day 6): 220 mm^3
Average Tumor Volume (SW1573 xenograft tumors; day 10): 229 mm^3
Average Tumor Volume (SW1573 xenograft tumors; day 13): 242 mm^3
Average Tumor Volume (SW1573 xenograft tumors; day 17): 319 mm^3
Average Tumor Volume (SW1573 xenograft tumors; day 20): 387 mm^3
Average Tumor Volume (SW1573 xenograft tumors; day 26): 444 mm^3
Average Tumor Volume (SW1573 xenograft tumors; day −1): 126 mm^3

Cc1c(-c2ccc(N3CCc4cccc(C(=O)Nc5nc6ccccc6s5)c4C3)nc2C(=O)O)cnn1CC12CC3CC(CC(C3)C1)C2 [A-1331852]
Composite Synergy Score (Mero84): 0
Composite Synergy Score (Miapaca2): 70
Average Tumor Volume ([1]; day 0): 143 mm^3
Average Tumor Volume ([1]; day 5): 163 mm^3
Average Tumor Volume ([1]; day 8): 189 mm^3
Average Tumor Volume ([1]; day 13): 255 mm^3
Average Tumor Volume ([1]; day 15): 291 mm^3
Average Tumor Volume ([1]; day 19): 347 mm^3
Average Tumor Volume ([1]; day 22): 366 mm^3
Average Tumor Volume ([2]; day 4): 171 mm^3
Average Tumor Volume ([2]; day 7): 191 mm^3
Average Tumor Volume ([2]; day 11): 248 mm^3
Average Tumor Volume ([2]; day 14): 300 mm^3
Average Tumor Volume ([2]; day 18): 332 mm^3
Average Tumor Volume ([2]; day 21): 376 mm^3
Average Tumor Volume ([2]; day 25): 467 mm^3
Average Tumor Volume ([2]; day 28): 564 mm^3
Average Tumor Volume ([2]; day 34): 683 mm^3
Average Tumor Volume ([2]; day −1): 139 mm^3
Average Tumor Volume (SW1573 xenograft tumors; day 3): 209 mm^3
Average Tumor Volume (SW1573 xenograft tumors; day 6): 250 mm^3
Average Tumor Volume (SW1573 xenograft tumors; day 10): 271 mm^3
Average Tumor Volume (SW1573 xenograft tumors; day 13): 305 mm^3
Average Tumor Volume (SW1573 xenograft tumors; day 17): 421 mm^3
Average Tumor Volume (SW1573 xenograft tumors; day 20): 456 mm^3
Average Tumor Volume (SW1573 xenograft tumors; day 26): 609 mm^3
Average Tumor Volume (SW1573 xenograft tumors; day −1): 125 mm^3

CC1(C)CCC(c2ccc(Cl)cc2)=C(CN2CCN(c3ccc(C(=O)NS(=O)(=O)c4ccc(N[C@H](CCN5CCOCC5)CSc5ccccc5)c(S(=O)(=O)C(F)(F)F)c4)cc3)CC2)C1 [ABT-263, navitoclax]
Composite Synergy Score (Mero84): −4
Composite Synergy Score (Miapaca2): 16
Average Tumor Volume ([1]; day 0): 155 mm^3
Average Tumor Volume ([1]; day 5): 186 mm^3
Average Tumor Volume ([1]; day 8): 210 mm^3
Average Tumor Volume ([1]; day 13): 302 mm^3
Average Tumor Volume ([1]; day 15): 319 mm^3
Average Tumor Volume ([1]; day 19): 339 mm^3
Average Tumor Volume ([1]; day 22): 371 mm^3
Average Tumor Volume ([2]; day 4): 172 mm^3
Average Tumor Volume ([2]; day 7): 192 mm^3
Average Tumor Volume ([2]; day 11): 244 mm^3
Average Tumor Volume ([2]; day 14): 269 mm^3
Average Tumor Volume ([2]; day 18): 288 mm^3
Average Tumor Volume ([2]; day 21): 299 mm^3
Average Tumor Volume ([2]; day 25): 389 mm^3
Average Tumor Volume ([2]; day 28): 420 mm^3
Average Tumor Volume ([2]; day 34): 472 mm^3
Average Tumor Volume ([2]; day −1): 138 mm^3
Average Tumor Volume (SW1573 xenograft tumors; day 3): 265 mm^3
Average Tumor Volume (SW1573 xenograft tumors; day 6): 328 mm^3
Average Tumor Volume (SW1573 xenograft tumors; day 10): 395 mm^3
Average Tumor Volume (SW1573 xenograft tumors; day 13): 536 mm^3
Average Tumor Volume (SW1573 xenograft tumors; day 17): 678 mm^3
Average Tumor Volume (SW1573 xenograft tumors; day 20): 809 mm^3
Average Tumor Volume (SW1573 xenograft tumors; day 26): 1133 mm^3
Average Tumor Volume (SW1573 xenograft tumors; day −1): 123 mm^3
